Source: US8772322B2, “Synergistic preservative compositions” (ISP Investments Inc., priority 2010, dated 2014)

What was measured:
Type in all cases: cell-based
[1] = test system: Escherichia coli (ATCC 8793); test: MIC / growth test of aqueous biocide mixtures, same protocol as Example 1, with synergy index; on growth: key: growth of the microorganism took place (symbol '+'); or not (symbol '−')
Procedure: (§1) Synergy is determined from combination studies of the different actives according to the method of calculation put forward by F. C. Kull et al, Applied Microbiology, 9:538 (1961): Synergy Index (SI)=Qa/QA+Qb/QB
(§2) Where • Qa=concentration of component A in the biocide composition showing the desired effect (e.g. no growth of microorganisms) • QA=concentration of component A as single component showing the desired effect • Qb=concentration of component B in the biocide composition showing the desired effect and • QB=concentration of component B as single component showing the desired effect
(§3) For a system consisting of three active components the synergy index is calculated by the formula: Synergy Index (SI)=Qa/QA+Qb/QB+Qc/QC
(§4) Synergy in a composition then exists when the synergy index is less than 1.
(§5) In this example synergy is shown against the microorganism Staphylococcus aureus (ATCC 6538). For this purpose MIC values were determined for each individual active as well as for different combinations of the 3 actives. MIC (Minimum Inhibitory Concentration) defines the lowest concentration level of a substance to inhibit the growth of a given organism.
(§6) The cell density of S. aureus was 10*5 cells/ml. The incubation time was 24 hr at 32° C.
(§7) TSB (Tryptic Soy […]) was used as nutrient medium.
In this example synergy is shown against the microorganism Escherichia coli (ATCC 8793).
(§8) The test protocol is the same as described under Example 1.
In Table 6 the synergy index has been calculated.

[2] = test system: Staphylococcus aureus (ATCC 6538); test: MIC / growth test of aqueous biocide mixtures in TSB, 24 hr at 32° C., with synergy index (Kull); on growth: key: growth of the microorganism took place (symbol '+'); or not (symbol '−')
Procedure: as §1, §2, §3, §4, §5
Subsequently the activity of these mixtures were tested against Staphylococcus aureus.
as §6, §7
In this way the table represents the MIC value for each tested combination.

[3] = test system: Pseudomonas aeruginosa (ATCC 9027); test: MIC / growth test of aqueous biocide mixtures, same protocol as Example 1, with synergy index; on growth: key: growth of the microorganism took place (symbol '+'); or not (symbol '−')
Procedure: as §1, §2, §3, §4, §5, §6, §7
In this example synergy is shown against the microorganism Pseudomonas aeruginosa (ATCC 9027).
as §8
In Table 4 the synergy index has been calculated.

[4] = in combination with IPBC 3.9 + CMIT/MIT 0.75 ppm
[5] = in combination with IPBC 7.8 + CMIT/MIT 0.75 ppm
[6] = in combination with IPBC 15.6 + CMIT/MIT 0.75 ppm
[7] = in combination with IPBC 31.2 + CMIT/MIT 0.75 ppm
[8] = single active, incubation time 24 hours

O=c1[nH]sc2ccccc12 [BIT, 1,2-Benzisothiazolin-3-one]
+: growth ([1]; BIT 1.56 ppm, single active) | growth ([1]; BIT 3.12 ppm, single active) | growth ([2]; BIT 0.01 ppm, IPBC 0, without CMIT/MIT) | growth ([2]; BIT 0.03 ppm, IPBC 0, without CMIT/MIT) | growth ([2]; BIT 0.05 ppm, IPBC 0, without CMIT/MIT) | growth ([2]; BIT 0.1 ppm, IPBC 0, without CMIT/MIT) | growth ([2]; BIT 0.19 ppm, IPBC 0, without CMIT/MIT) | growth ([2]; BIT 0.39 ppm, IPBC 0, without CMIT/MIT) | growth ([2]; BIT 0.78 ppm, IPBC 0, without CMIT/MIT) | growth ([2]; BIT 1.56 ppm, IPBC 0, without CMIT/MIT) | growth ([2]; BIT 3.12 ppm, single active) | growth ([3]; BIT 6.25 ppm, single active) | growth ([3]; BIT 12.5 ppm, single active) | growth ([3]; BIT 25 ppm, single active)
12.5 ppm: MIC BIT con. Qb [3, 4] | MIC BIT con. Qb [3, 5] | MIC BIT con. Qb [3, 6] | MIC BIT con. Qb [3, 7]
50 ppm: MIC as single component (QA, QB, QC) [3, 8]
25 ppm: MIC BIT con. Qb ([3]; in combination with IPBC 125 ppm, CMIT/MIT 0)
6.25 ppm: MIC as single component (QA, QB, QC) [1, 8] | MIC as single component (QA, QB, Qc) [2, 8] | MIC BIT con. Qb ([3]; in combination with IPBC 62.5 + CMIT/MIT 0.75 ppm) | MIC BIT con. Qb ([3]; in combination with IPBC 125 + CMIT/MIT 0.75 ppm)
0.01 ppm: MIC BIT con. Qb ([2]; in combination with IPBC 7.8 + CMIT/MIT 1.5 ppm)
3.12 ppm: MIC BIT con. Qb ([1]; in combination with IPBC 0.98 + CMIT/MIT 0.75 ppm) | MIC BIT con. Qb ([1]; in combination with IPBC 1.95 + CMIT/MIT 0.75 ppm) | MIC BIT con. Qb ([1]; in combination with IPBC 3.9 + CMIT/MIT 0.19 ppm) | MIC BIT con. Qb [1, 4] | MIC BIT con. Qb ([1]; in combination with IPBC 7.8 + CMIT/MIT 0.19 ppm) | MIC BIT con. Qb [1, 5] | MIC BIT con. Qb ([1]; in combination with IPBC 15.6 + CMIT/MIT 0.19 ppm) | MIC BIT con. Qb [1, 6] | MIC BIT con. Qb ([1]; in combination with IPBC 31.2 + CMIT/MIT 0.19 ppm) | MIC BIT con. Qb ([1]; in combination with IPBC 62.5 ppm, CMIT/MIT 0)
0.78 ppm: MIC BIT con. Qb [1, 7] | MIC BIT con. Qb ([2]; in combination with IPBC 0.49 + CMIT/MIT 1.5 ppm) | MIC BIT con. Qb ([2]; in combination with IPBC 0.98 + CMIT/MIT 1.5 ppm) | MIC BIT con. Qb ([2]; in combination with IPBC 1.95 + CMIT/MIT 1.5 ppm) | MIC BIT con. Qb ([2]; in combination with IPBC 7.8 ppm, CMIT/MIT 0)
−: growth ([1]; BIT 6.25 ppm, single active) | growth ([1]; BIT 12.5 ppm, single active) | growth ([1]; BIT 25 ppm, single active) | growth ([1]; BIT 50 ppm, single active) | growth ([1]; BIT 100 ppm, single active) | growth ([2]; BIT 3.12 ppm, IPBC 0, without CMIT/MIT) | growth ([2]; BIT 6.25 ppm, IPBC 0, without CMIT/MIT) | growth ([2]; BIT 6.25 ppm, single active) | growth ([2]; BIT 12.5 ppm, IPBC 0, without CMIT/MIT) | growth ([2]; BIT 12.5 ppm, single active) | growth ([2]; BIT 25 ppm, single active) | growth ([2]; BIT 50 ppm, single active) | growth ([2]; BIT 100 ppm, single active) | growth ([3]; BIT 50 ppm, single active) | growth ([3]; BIT 100 ppm, single active) | growth ([3]; BIT 200 ppm, single active)
1.56 ppm: MIC BIT con. Qb ([1]; in combination with IPBC 62.5 + CMIT/MIT 0.19 ppm) | MIC BIT con. Qb ([2]; in combination with IPBC 1.95 + CMIT/MIT 0.37 ppm) | MIC BIT con. Qb ([2]; in combination with IPBC 3.9 + CMIT/MIT 0.37 ppm) | MIC BIT con. Qb ([2]; in combination with IPBC 3.9 ppm, CMIT/MIT 0) | MIC BIT con. Qb ([2]; in combination with IPBC 7.8 + CMIT/MIT 0.37 ppm)
0.39 ppm: MIC BIT con. Qb ([2]; in combination with IPBC 3.9 + CMIT/MIT 1.5 ppm)
